One assay deals with HSP70. The assay can be described thus: HSP70 levels in SCG neurons (immunoblot). It counts as cell-based. The settings on record: 18 hours. The procedure: To address this, SCG neurons were treated with compound 1 for 18 hours then lysed and assessed for HSP70 levels by immunoblot. Uninfected PC12rtTA cells were treated in a similar manner. […] To test if the accumulation of HSP70 induced by compound 1 reflected increased steady state levels of its mRNA, RNA was isolated from PC12 cells treated with increasing concentrations of compound 1 for 18 hours and the cell lysates subjected to semi-quantitative rtPCR. […] HSP protein levels were also assessed in PC12rtTA cells infected with AdLacZ, Adp75, or AdNRG, and at the same time, exposed to compound 1.
(In general: In western blotting, separated proteins are transferred to a membrane and probed.)

In the next assay the test system is HSP70, HSP25, HSP90 mRNA. The assay can be described thus: semi-quantitative rtPCR of HSP mRNA in PC12 cells. The note with it: 18 hours. In kind it is cell-based, rat. Here is the method: FIGS. 4A-4C are photographs of Western blots which illustrate that compound 1 treatment of PC12 cells induces expression of HSP70. A: PC12 cells were infected with 5 MOI of AdNRG (NRG) or AdLacZ (LacZ) as indicated. Cells were left untreated (0) or treated with 40 μM compound 1 at time of infection (30), one hour before lysis (1), or at both times (30+1). Cells were lysed thirty hours after infection, normalized for protein content, and analyzed for levels of phospho-Ser^63 c-Jun and total c-Jun, total JNK, IkBα, and NRAGE by immunoblotting. Lysates from untreated cells are indicated by ‘−’. B: PC12 cells were treated with the indicated concentrations of compound 1 for 18 hours and then lysed, normalized for protein content, and analyzed for levels of HSP70 by immunoblotting. Lysates from untreated cells are indicated by ‘−’. C: RNA isolated from PC12^rtTA cells treated with increasing concentrations of compound 1 for 18 hours was analyzed by rtPCR using primers specific to HSP70, HSP25, HSP90 or actin, as indicated. […] Thirty hours after infection, cells were lysed, normalized for protein content, and analyzed for levels of c-Jun phosphorylation, HSP70, HSP25, HSP40, NRAGE, p75NTR, JNK-1 and IkBα, as indicated.
To address this, SCG neurons were treated with compound 1 for 18 hours then lysed and assessed for HSP70 levels by immunoblot. […]

In assay [1] the test system is HSP70 promoter. The assay is described as follows: HSP70 promoter reporter transcriptional assay in MEFs (luciferase). In kind it is cell-based, mouse. Here is the method:
(§1) FIGS. 5B and 5C are photographs of Western blots showing that compound 1 binds HSP90 and causes HSF1-dependent expression of HSP70 and HSP25. A: Wild-type or HSF1 null MEFs were transfected with pGL3B-HSP70, an HSP70 promoter reporter construct, or parental vector (pGL3B), then treated with 40 μM of compound 1 for 24 hours and analyzed for luciferase content as described in Materials and Methods (*=P<0.005 relative to 0 compound 1; **=P<0.005 relative to wild-type MEFs treated with 40 uM compound 1. B: Wild-type or HSF1 null MEFs were treated with increasing concentrations of compound 1 for 24 hours, cells were lysed, normalized for protein content, and analyzed for levels of HSP70, HSP40, and HSP25 as indicated. C: Compound 6-conjugated Sepharose beads were incubated with purified HSP90 for 2 hours, washed, and levels of bound HSP90 were analyzed by immunoblot. Con=Control beads, Alone=Compound 6-beads alone, Comp=[…]+competing compound 1 (at 80 μM). Experiments in Panel A-C were performed three times with identical results.
(§2) Induction of cell stress results in the interaction of HSP90 with misfolded proteins and disrupts its association with HSF1, allowing it to bind and activate HSP70 and HSP25 promoters (Sanchez-Perez and Perona, 1999). […]

The subject of a further assay is HSP70 and HSP25. The assay can be described thus: Endogenous HSP protein expression in wild-type or HSF1 null MEFs (immunoblot). It counts as cell-based, mouse. Here is the method: as §1, §2
Assay [2] relates to HSP70 promoter. The assay can be described thus: HSP70 transcriptional reporter constructs in PC12 cells. It counts as cell-based. The note with it: transfected PC12 cells.
The subject of another assay is HSP90. The assay can be described thus: ATP-Sepharose interaction assay. In kind it is binding. The settings on record: purified HSP90 pre-incubated with substance. Here is the method:
Bound HSP90 was eluted HSP90 content was determined by immunoblotting.
ATP-Sepharose Interaction Assays. These were performed essentially as described in (Grenert et al., 1997). […] 25 ul of ATP-sepharose beads were added and the reactions were incubated for 30 min at 30° C. After thorough washing with ice-cold incubation buffer, bound proteins were eluted in sample buffer and HSP90 content was determined by immunoblotting.

Another assay relates to Akt. The assay is described as follows: Akt levels in PC12 cells (immunoblot). The settings on record: 16 hours. It counts as cell-based.

The structures appear in SMILES notation.

As for `NS(=O)(=O)c1nn2cc(-c3ccccc3)nc2s1` [Compound 1], the “cellular HSP70 levels” value with HSP70 was “large increase”. In the assay with HSP70, HSP25, HSP90 mRNA, the “HSP25 and HSP70 mRNA levels” value is “increased levels”; the “HSP90 or actin mRNA levels” value is listed as “no effect”. The “transcriptional activity of the HSP70 promoter reporter construct” value in the assay on HSP70 promoter [1] (MEFs lacking HSF1, 40 μM) is on record as “remained at baseline”. For the same compound, the “transcriptional activity of the HSP70 promoter reporter construct” value with HSP70 promoter [1] (wild-type MEFs, 40 μM) was “strongly induced”. The “expression of endogenous HSP70 and HSP25” value with HSP70 and HSP25 (MEFs lacking HSF1, 24 hours) is “not in MEFs lacking HSF1”. For the same compound, the “expression of endogenous HSP70 and HSP25” value in the assay on HSP70 and HSP25 (wild type MEFs, 24 hours) was “strong induction”. Besides, the “activity of HSP70 transcriptional reporter constructs” value in the assay with HSP70 promoter [2] was “stimulated”. In addition, the “binding of HSP90 to gATP-Sepharose” value with HSP90 was “does not decrease the amount of HSP90 bound to gATP-Sepharose but rather increased their association”. In addition, in the assay with Akt, the “phosphorylated Akt (pAkt) levels” value is given as “significantly enhanced” and the “total Akt levels” value was “reduced total Akt only slightly”.
